Laboratory results as given in article PMC2121212 (The Journal of Experimental Medicine, 2006).
No end group written: not given here.

Key:
[1] = tested on: additional HEL [11–25]–specific and LACK [156–173]–specific T cell hybridomas; assay: Presentation to additional independently derived T cell hybridomas; type: cell-based, murine; conditions: compared with original T cells
I-A^d = target: T1, I-A^d (Mus musculus, UniProt P01921+P04228); type: binding, murine
T1 sequence (P04228 24-111 limits assumed): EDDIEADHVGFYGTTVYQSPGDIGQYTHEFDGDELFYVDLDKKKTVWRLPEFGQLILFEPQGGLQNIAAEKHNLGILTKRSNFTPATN
T1 sequence (P01921 28-122 limits assumed): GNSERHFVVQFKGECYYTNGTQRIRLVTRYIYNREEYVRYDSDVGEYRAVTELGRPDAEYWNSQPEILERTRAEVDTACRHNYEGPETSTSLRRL

[2] = tested on: antigen-specific T cell hybridomas stimulated by APCs that do or do not express DM; type: cell-based, murine; conditions: for DM enhancement (fold DM effect): overnight, CTLL/MTT read-out
CD4 T cell response = conditions: in vivo response to variant when encoded in MalE (Fig. 4); ref [28]; cited from earlier work
[3] = tested on: antigen-specific T cells stimulated by APCs that do or do not express DM; assay: Presentation from native protein versus MalE; type: cell-based, murine; conditions: native protein vs MalE (Fig. S1)

Substance: R14Q, N19A, G22S: triple substitution HEL [11–25] variant (AMKQHGLDAYRSYSL; also: fluorescein (FITC) label, position not given here)
- DM effect detected by additional T cell hybridomas [1]: confirmed this effect on the efficiency of presentation pattern with two additional, independently derived HEL [11–25]–specific hybridomas
- Increase in kinetic stability (I-A^d): threefold
- DM enhancement (fold DM effect) [2]: 29.7 ± 7.6 fold

Substance: T128G: HA [126–138] P1 substitution (T128G) (HNGNGVTAACSHE)
- Immunogenicity of variant encoded in MalE (CD4 T cell response): cryptic

Substance: HA [126–138]: derived from the influenza hemagglutinin molecule (HNTNGVTAACSHE) [reference compound]
- Presentation of synthetic peptide pulsed on DM^+ vs DM^− APCs ([2]; APCs pulsed with peptide instead of protein (Fig. 1 G, H; Fig. 2 B)): equivalent
- Effect of DM expression on presentation ([2]; epitope encoded within MalE, DM^+ vs DM^− APCs (Figs. 1 and 2, Table II)): modestly antagonized

Substance: HEL [11-25]: cryptic epitope derived from HEL, which has an unstable interaction with class II molecules (AMKRHGLDNYRGYSL; also: fluorescein (FITC) label, position not given here) [reference compound]
- Influence of protein context on DM-mediated presentation [3]: independent of the protein context from which the peptide epitope is derived
- Fold more protein required on APCs expressing DM (antagonism) [2]: ~10 fold

Substance: T128M: high stability HA variant T128M (HNMNGVTAACSHE)
- Immunogenicity of variant encoded in MalE (CD4 T cell response): immunogenic

Substance: T128Q: kinetic stability variant of HA [126–138] (HNQNGVTAACSHE)
- DM enhancement (fold DM effect) [2]: 3.5 ± 0.7 fold
- Immunogenicity of variant encoded in MalE (CD4 T cell response): immunogenic

Substance: V131A: HA [126–138] P4 substitution (V131A) (HNTNGATAACSHE)
- Immunogenicity of variant encoded in MalE (CD4 T cell response): cryptic

Substance: T128V, S136T: kinetic stability variant of HA [126–138] (HNVNGVTAACTHE)
- Immunogenicity of variant encoded in MalE (CD4 T cell response): cryptic
